Each structure is given as a SMILES string.

A short description of the data set: Human HepG2 cell viability assay in 384 well format. The class given is toxicity, cell-based. The arrangement: dose 125 nL, time 70.5 hour; concentration not given beside the values. The note with it: HepG2 cells, read-out: Inhibition.

Consider `CS(=O)(=O)c1cccc(C(N)c2ccccc2)c1` (stereo not given), for which the cytotoxicity at 70.5 h is -1.27%.
For `Cc1cnc(CNC(=O)N(CCCO)C2CCc3ccccc32)s1` (stereo not given), the cytotoxicity at 70.5 h was determined as 0.605%.
To `CN(Cc1noc(C2CC2)n1)C1CCN(CCc2cnn(C)c2)C1` (stereo not given) belongs 14.4%; to `CC(C)c1cnc(CN(C)C2CCN(CCCc3cnn(C)c3)C2)o1` (stereo not given), 20.9%; to `c1ccc(-c2nc(CN3CCn4c(nnc4C4CC4)C3)co2)cc1`, -9.3%.
`CN(CC(=O)NC1(C)CCS(=O)(=O)C1)Cc1ccc(F)c(F)c1` (stereo not given): the cytotoxicity at 70.5 h turned out to be 3.42%.
To `COc1cccc(CN(C)CC(=O)NC2(C)CCS(=O)(=O)C2)c1` (stereo not given) belongs -15.4%; to `Cc1cc(C(=O)N2CCN(Cc3ccsc3)CC2)c(C)n1C1CC1`, -14.9%.
`c1ccc2c(OCCN3CCn4c(nnc4C4CC4)C3)cccc2c1`: the cytotoxicity at 70.5 h stood at 2.06%.
Then `c1ccc(Cc2nnc(CN3CCn4c(nnc4C4CC4)C3)o2)cc1`, with -13.3%; and `O=C(NCCN1C(=O)c2ccccc2C1=O)c1scnc1Cl`, with -7.67%; and `NC(=O)CN1CCCN(C(=O)Cc2ccc(Br)cc2)CC1`, with -13.7%.
Then `O=C(NCCNC(=O)c1scnc1Cl)c1ccoc1`, with 5.67%; and `COc1ccc(CN2CCN(C(=O)c3ccc(C)n3C)CC2)cc1`, with -11.9%; and `Cc1csc(N2CCCN(C(=O)c3occc3C)CC2)n1`, with 1.54%.
Then `NC(=O)CN1CCCN(C(=O)Cc2ccc(F)cc2)CC1`, with -13.3%; and `NC(=O)CN1CCCN(C(=O)Cc2cccc(C(F)(F)F)c2)CC1`, with 4.42%.
As for `Cc1ccc(C(=O)N2CCN(Cc3cccs3)CC2)n1C`, the cytotoxicity at 70.5 h was -14.9%.
To `Cc1ccoc1-c1nnc(CN2CCn3c(C)nnc3C2)o1` belongs -0.634%.
Then `Cc1ncc2c(n1)CN(CC(=O)Nc1ccc(Cl)cn1)CC2`, with -13.8%.
To `CCc1ncc2c(n1)CN(CC(=O)Nc1cc(C)no1)CC2` belongs -0.924%.
With `Cc1ccc(NC2CCN(C(=O)c3cc(C)sc3C)CC2)nn1`, the cytotoxicity at 70.5 h was -11.8%.
Then `Cc1ccoc1-c1nnc(CN2CCn3c(nnc3C(C)C)C2)o1`, with -2.59%; and `Cc1ncc(CN2CCCC(c3cc(C(F)(F)F)[nH]n3)C2)s1` (stereo not given), with -1.49%; and `CCc1ncc2c(n1)CN(CC(=O)Nc1cc(C)on1)CC2`, with 12%.
To `Cc1csc(N2CCCN(C(=O)c3csc(C)n3)CC2)n1` belongs -10.6%; to `Cc1nn(C)c(N(C)C)c1CNCc1ccc(OCCN(C)C)cc1`, 22.3%; to `COc1c(CNCc2ccc(OCC(N)=O)cc2)c(C)nn1C`, 7.56%.
To `OC(COCc1cccs1)CN1CCc2c(ncn2C2CC2)C1` (stereo not given) belongs -2.16%; to `CCOCCN1CCN(Cc2cccc(C(=O)N(C)C)c2)CC1C` (stereo not given), -9.62%.
For the compound `CCc1noc(C(C)N2CCN(CC)CC2)n1` (stereo not given), the cytotoxicity at 70.5 h is -8.24%.
Then `CCc1noc(C(C)N2CCC(O)CC2)n1` (stereo not given), with -10.2%; and `Cc1cnn(CC2CCCN2C(=O)c2ccc(C(N)=O)cn2)c1` (stereo not given), with -10.6%; and `O=C1CCC(C(=O)NCc2nn(-c3ccccc3)c3c2CCC3)CN1` (stereo not given), with 4.23%.
With `CCn1c(C)cc(C(=O)N2CCCC(n3nc(C)nc3C)C2)c1C` (stereo not given), the cytotoxicity at 70.5 h was -7.33%.
To `CCn1nc2c(cc1=O)CN(Cc1nc(-c3ccccn3)no1)CC2` belongs -1.12%.
To `CCn1nc2c(cc1=O)CN(Cc1nc(-c3ccsc3)no1)CC2` belongs -22.4%; to `CC(C)c1cc(CNC(=O)N2CCC(Cc3cnn(C)c3)C2)on1` (stereo not given), -11.4%; to `O=C(NCc1nn(-c2ccccc2)c2c1CCC2)N1CCSCC1`, 32.7%.
Then `Cc1ccc(C(N)c2cccc(S(C)(=O)=O)c2)c(C)c1` (stereo not given), with -7.42%.

The values are drawn from ChEMBL document CHEMBL3507680, “University of Dundee, Gates Library screen for HepG2 cell viability”.
